Test system: interferon-stimulated genes (ISGs)
Assay: Microarray analysis of iCell Hepatocytes treated with the compound of example 1
Type: cell-based, Human
From the text: iCell Hepatocytes treated with the compound of example 1 results in the up and down-regulation of a host of genes; including a kinetic effect on interferon-stimulated gene (ISGs) expression. See FIGS. 15-I and 15-II, 16-I and 16-II and 18 and Table 1.

## O=C(NCc1cccc(F)c1)c1cccc2nc(-c3c(NC[C@@H](O)c4ccccc4)cc[nH]c3=O)[nH]c12 [Example 1, 2-[4-((S)-2-hydroxy-2-phenyl-ethylamino)-2-oxo-1,2-dihydro-pyridin-3-yl]-3H-benzoimidazole-4-carboxylic acid 3-fluoro-benzylamide]
2 HOUR
  ADAM19 Raw Est Fold Change: 2.77
  AES Raw Est Fold Change: 2.07
  AKT3 Raw Est Fold Change: −1.76
  ASNS Raw Est Fold Change: 1.80
  BCL3 Raw Est Fold Change: −1.44
  BUB1 Raw Est Fold Change: −20.72
  C10orf10 Raw Est Fold Change: −3.72
  CD80 Raw Est Fold Change: −13.65
  CD300LF Raw Est Fold Change: 5.42
  CEBPD Raw Est Fold Change: −1.29
  CSNK1D Raw Est Fold Change: 1.10
  DDIT4 Raw Est Fold Change: 2.67
  DRAP1 Raw Est Fold Change: 1.17
  EFNB2 Raw Est Fold Change: −1.63
  EHHADH Raw Est Fold Change: −1.16
  EPAS1 Raw Est Fold Change: −2.61
  ETV7 Raw Est Fold Change: −2.54
  FGF2 Raw Est Fold Change: −1.76
  GOLGA3 Raw Est Fold Change: 1.45
  GTPBP2 Raw Est Fold Change: −1.29
  HLA-C Raw Est Fold Change: −4.87
  ISGF3G Raw Est Fold Change: −1.17
  JAK1 Raw Est Fold Change: −5.55
  JUNB Raw Est Fold Change: −6.01
  KAL1 Raw Est Fold Change: −2.61
  KPNB1 Raw Est Fold Change: 1.14
  MAX Raw Est Fold Change: 3.74
  MPO Raw Est Fold Change: −3.18
  PCMT1 Raw Est Fold Change: −1.10
  PHF11 Raw Est Fold Change: −1.80
  PHF15 Raw Est Fold Change: 1.74
  PI4K2B Raw Est Fold Change: −1.08
  PIM3 Raw Est Fold Change: −1.19
  PXK Raw Est Fold Change: 1.17
  RHOH Raw Est Fold Change: −14.71
  SCARB2 Raw Est Fold Change: 1.50
  SOCS1 Raw Est Fold Change: −4.13
  SOCS3 Raw Est Fold Change: −9.95
  TXNIP Raw Est Fold Change: −2.04
24 HOUR
  ABHD5 Raw Est Fold Change: −1.43
  ADM Raw Est Fold Change: −1.81
  AKAP12 Raw Est Fold Change: 3.33
  ALCAM Raw Est Fold Change: −1.24
  AMPH Raw Est Fold Change: −3.29
  ARHGDIB Raw Est Fold Change: −1.72
  ARHGEF3 Raw Est Fold Change: −1.32
  ATF3 Raw Est Fold Change: −3.06
  AXL Raw Est Fold Change: −6.82
  B4GALT5 Raw Est Fold Change: −1.87
  BAG1 Raw Est Fold Change: 1.26
  BCL3 Raw Est Fold Change: −3.11
  BHMT Raw Est Fold Change: 5.84
  BLZF1 Raw Est Fold Change: −1.26
  BST2 Raw Est Fold Change: −1.70
  BTG1 Raw Est Fold Change: −1.16
  BUB1 Raw Est Fold Change: −33.18
  C1S Raw Est Fold Change: −1.62
  C4orf32 Raw Est Fold Change: −7.20
  C4orf33 Raw Est Fold Change: 3.95
  C10orf10 Raw Est Fold Change: −2.71
  CASP4 Raw Est Fold Change: −5.09
  CASP5 Raw Est Fold Change: −3.00
  CCND3 Raw Est Fold Change: −1.81
  CD38 Raw Est Fold Change: −10.02
  CD47 Raw Est Fold Change: −1.52
  CEBPD Raw Est Fold Change: −2.58
  CHD6 Raw Est Fold Change: 1.16
  CHST12 Raw Est Fold Change: −1.21
  CLCN6 Raw Est Fold Change: −1.26
  CREB3L3 Raw Est Fold Change: −3.22
  CRYM Raw Est Fold Change: 2.03
  CSDA Raw Est Fold Change: −2.38
  CTSL Raw Est Fold Change: −1.28
  CX3CL1 Raw Est Fold Change: 2.73
  CXCL10 Raw Est Fold Change: 1.71
  CYBA Raw Est Fold Change: −1.64
  CYP1B1 Raw Est Fold Change: −2.71
  DDX17 Raw Est Fold Change: −1.56
  DNAPTP6 Raw Est Fold Change: 1.34
  DRAP1 Raw Est Fold Change: 1.29
  EFNB2 Raw Est Fold Change: −1.46
  EGR1 Raw Est Fold Change: −2.86
  EHHADH Raw Est Fold Change: 1.80
  EMP1 Raw Est Fold Change: −5.94
  EPAS1 Raw Est Fold Change: −2.84
  ETS2 Raw Est Fold Change: −1.73
  ETV6 Raw Est Fold Change: −1.37
  ETV7 Raw Est Fold Change: −3.88
  FAM125B Raw Est Fold Change: −1.54
  FBXO6 Raw Est Fold Change: 3.00
  FFAR2 Raw Est Fold Change: −7.50
  FKBP1B Raw Est Fold Change: −1.90
  FKBP5 Raw Est Fold Change: −1.39
  FLT1 Raw Est Fold Change: −1.75
  FNDC3B Raw Est Fold Change: −1.67
  FNDC4 Raw Est Fold Change: −1.59
  FUBP1 Raw Est Fold Change: −1.50
  FUT4 Raw Est Fold Change: −1.89
  G6PC Raw Est Fold Change: 4.22
  GALNT2 Raw Est Fold Change: −5.18
  GBP2 Raw Est Fold Change: −1.83
  GBP4 Raw Est Fold Change: −3.07
  GCH1 Raw Est Fold Change: 1.17
  GK Raw Est Fold Change: −2.50
  GLUL Raw Est Fold Change: 1.13
  GNAI1 Raw Est Fold Change: 1.43
  GOLGA3 Raw Est Fold Change: −1.24
  GTF2F1 Raw Est Fold Change: 1.28
  GTPBP1 Raw Est Fold Change: −1.24
  HEG1 Raw Est Fold Change: −3.64
  HIF1A Raw Est Fold Change: −1.47
  HK2 Raw Est Fold Change: −1.88
  HLA-DPA1 Raw Est Fold Change: −2.10
  HLA-DPB1 Raw Est Fold Change: −2.11
  ICAM1 Raw Est Fold Change: −6.60
  IER3 Raw Est Fold Change: −2.60
  IFI16 Raw Est Fold Change: −6.86
  IFI27 Raw Est Fold Change: −1.56
  IFIT1 Raw Est Fold Change: 3.58
  IFIT3 Raw Est Fold Change: 1.88
  IFITM1 Raw Est Fold Change: −3.11
  IFITM2 Raw Est Fold Change: −1.90
  IFITM3 Raw Est Fold Change: −1.36
  IFNGR1 Raw Est Fold Change: −2.46
  IGHM Raw Est Fold Change: −2.00
  IL6 Raw Est Fold Change: −4.57
  IL6ST Raw Est Fold Change: −1.25
  IL8 Raw Est Fold Change: −4.32
  IL28RA Raw Est Fold Change: 1.28
  IMPA2 Raw Est Fold Change: −1.80
  IQGAP1 Raw Est Fold Change: −1.70
  IRF3 Raw Est Fold Change: 1.26
  IRF7 Raw Est Fold Change: −3.86
  ISG20 Raw Est Fold Change: −1.70
  ISGF3G Raw Est Fold Change: −1.37
  ITGA2 Raw Est Fold Change: −1.94
  JAK1 Raw Est Fold Change: −1.17
  JAK2 Raw Est Fold Change: −1.29
  JUNB Raw Est Fold Change: −4.94
  KDELR2 Raw Est Fold Change: −1.19
  KIAA0040 Raw Est Fold Change: −5.04
  KPNB1 Raw Est Fold Change: −1.12
  LEPR Raw Est Fold Change: 2.89
  LIFR Raw Est Fold Change: 1.33
  LRG1 Raw Est Fold Change: −2.10
  LRP4 Raw Est Fold Change: −2.17
  MAFB Raw Est Fold Change: 2.60
  MAFF Raw Est Fold Change: −2.09
  MAP3K8 Raw Est Fold Change: −3.81
  MCL1 Raw Est Fold Change: −1.16
  MLKL Raw Est Fold Change: −1.78
  MSR1 Raw Est Fold Change: −2.06
  MT1M Raw Est Fold Change: −3.35
  MT1X Raw Est Fold Change: −6.73
  MTHFD2L Raw Est Fold Change: −2.20
  MTMR1 Raw Est Fold Change: −1.14
  MYD88 Raw Est Fold Change: 1.15
  MYT1 Raw Est Fold Change: −3.59
  N4BP1 Raw Est Fold Change: −1.40
  NFE2 Raw Est Fold Change: −8.28
  NFKBIA Raw Est Fold Change: −1.38
  NPAS2 Raw Est Fold Change: −2.77
  NUB1 Raw Est Fold Change: −1.47
  PADI2 Raw Est Fold Change: 2.66
  PCGF2 Raw Est Fold Change: 1.44
  PCMT1 Raw Est Fold Change: −1.10
  PCTK2 Raw Est Fold Change: −1.85
  PCTK3 Raw Est Fold Change: 1.59
  PDGFA Raw Est Fold Change: 1.23
  PDGFRL Raw Est Fold Change: −1.86
  PDK1 Raw Est Fold Change: −1.48
  PEX26 Raw Est Fold Change: 1.29
  PIM3 Raw Est Fold Change: −2.56
  PLOD2 Raw Est Fold Change: −1.22
  PLSCR1 Raw Est Fold Change: −3.34
  PNRC1 Raw Est Fold Change: −2.42
  PPIC Raw Est Fold Change: −1.23
  PPP1R3D Raw Est Fold Change: −1.49
  PSCD1 Raw Est Fold Change: −1.21
  PSMA2 Raw Est Fold Change: 1.27
  PSMB9 Raw Est Fold Change: −1.86
  PTEN Raw Est Fold Change: 1.23
  RAB27A Raw Est Fold Change: −2.33
  RANBP1 Raw Est Fold Change: 1.13
  RBCK1 Raw Est Fold Change: 1.34
  RBL1 Raw Est Fold Change: −4.92
  RBMS1 Raw Est Fold Change: −1.38
  RHOH Raw Est Fold Change: 5.26
  RXRA Raw Est Fold Change: 1.46
  SAT Raw Est Fold Change: −1.57
  SDC2 Raw Est Fold Change: 1.96
  SERPINB9 Raw Est Fold Change: −1.86
  SFPQ Raw Est Fold Change: −1.39
  SFTPC Raw Est Fold Change: −1.66
  SLC15A2 Raw Est Fold Change: −1.58
  SLC25A28 Raw Est Fold Change: −1.54
  SLC25A30 Raw Est Fold Change: 1.53
  SMAD3 Raw Est Fold Change: −1.19
  SOAT2 Raw Est Fold Change: 4.03
  SOCS1 Raw Est Fold Change: −9.88
  SOCS3 Raw Est Fold Change: −3.51
  SPTLC2 Raw Est Fold Change: −10.08
  SQLE Raw Est Fold Change: −1.98
  SQRDL Raw Est Fold Change: −1.45
  SSBP3 Raw Est Fold Change: 1.35
  STAT1 Raw Est Fold Change: −2.14
  STEAP4 Raw Est Fold Change: −65.16
  TAP1 Raw Est Fold Change: −1.60
  TAP2 Raw Est Fold Change: −1.54
  TBX3 Raw Est Fold Change: 1.42
  TCF7L2 Raw Est Fold Change: −1.29
  TEAD4 Raw Est Fold Change: −2.33
  TFPI Raw Est Fold Change: −1.38
  THBD Raw Est Fold Change: −9.02
  THBS1 Raw Est Fold Change: −1.44
  TMEM2 Raw Est Fold Change: −1.35
  TMEM49 Raw Est Fold Change: −2.07
  TMEM67 Raw Est Fold Change: −4.34
  TNFSF13B Raw Est Fold Change: 1.36
  TRIM14 Raw Est Fold Change: 1.36
  TRIM26 Raw Est Fold Change: 1.56
  TXNIP Raw Est Fold Change: −1.37
  UBE2S Raw Est Fold Change: −1.40
  USP12 Raw Est Fold Change: −1.96
  USP25 Raw Est Fold Change: −1.22
  VAT1 Raw Est Fold Change: 1.21
  YWHAE Raw Est Fold Change: −1.11
  ZFYVE26 Raw Est Fold Change: 1.31
  ZNF24 Raw Est Fold Change: −1.16
  ZNF295 Raw Est Fold Change: −1.84
DAY 7
  ABHD5 Raw Est Fold Change: −2.05
  ACSL1 Raw Est Fold Change: 1.78
  ADM Raw Est Fold Change: −3.85
  AGXT Raw Est Fold Change: 2.54
  AHR Raw Est Fold Change: −2.08
  AKR1B1 Raw Est Fold Change: −3.52
  AKT3 Raw Est Fold Change: −5.29
  ALCAM Raw Est Fold Change: −1.46
  ALDH1A1 Raw Est Fold Change: 1.54
  AMPH Raw Est Fold Change: −21.01
  APOL6 Raw Est Fold Change: 1.36
  ARHGDIB Raw Est Fold Change: −3.40

Source: US9181218B2, “Compounds for improved stem cell differentiation into hepatocytes” (Hoffmann-La Roche Inc., priority 2013, dated 2015)
